Like-named read-outs stand apart in the source and are kept apart here.
Legend:
[1] = test system: HPRT KO T cells; assay: 6TG IC50, T cell viability; type: cell-based; settings: FIG. 27
Procedure: (§1) Such inactivation confers 6TG resistance that contrasts with the sensitivity of WT T cells to this drug. IC50 can be approximately determined to 10 nM and >100 μM for WT and HPRT KO T cells respectively.

[2] = test system: WT T cells; assay: 6TG IC50, T cell viability; type: cell-based; settings: FIG. 27
Procedure: as §1

[3] = test system: WT T cells; assay: Clofarabine IC50, T cell viability by FACS; type: cell-based; settings: 48 h, 2 days incubation with clofarabine 0 to 10 μM, FIG. 8, read-out: IC50 (amount of drug to decrease cell viability to 50%)
Procedure: (§2) FIG. 8 represents the percentage of cell viability of WT and dCK KO T cells (treated with 5 μg or 10 μg of mRNA encoding dCK2 TALE-nuclease pair) cultured for two days in the presence of increasing amount of clofarabine (10 nM to 10 μM). This graph allows to determine the Clofarabine IC50 toward both cell populations;
(§3) To further investigate the ability of T cells to resist to clofarabine, IC50 for this drug was determined on dCK KO and WT T cells. The cells were collected 3 days after transfection were incubated for 2 days in the presence of increasing concentration of clofarabine (0 to 10 μM). At the end of clofarabine incubation, viability of T cells was determined by FACS analysis2.
(§4) The results presented in FIG. 8 show clearly that the processing of dCK gene mediated by TALE-nucleases efficiently inactivates dCK activity in T cells. Such inactivation correlates to clofarabine resistance, contrasting with the sensitivity of WT T cells. The IC50 values (amount of drug to add in the media to decrease cell viability to 50%) correspond respectively to about 100 nM and 10 μM for WT and dCK KO T cells.

[4] = test system: dCK KO T cells; assay: Clofarabine IC50, T cell viability by FACS; type: cell-based; settings: 48 h, 2 days incubation with clofarabine 0 to 10 μM, FIG. 8, read-out: IC50 (amount of drug to decrease cell viability to 50%)
Procedure: as §2, §3, §4

[5] = test system: CAR T cells negative control; assay: Sensitivity of CAR T cells to clofarabine and fludarabine (cell viability); type: cell-based
Procedure: (§7) These graphs allows determination of IC50 for both drugs clofarabine and fludarabine;
(§8) T cells were grown with or without clofarabine between D3 and D8 (see workflow 2 in FIG. 9), then they were incubated for 2 days (from D15 to D17) in media with different concentrations of clofarabine. T cells viability was then assessed by FACS analysis using the count bright kit.
(§9) These cells were then used to determined their sensitivity for clofarabine and fludarabine as performed before.

[6] = test system: dCK/TRAC KO CAR T cells; assay: as above; type: cell-based
Procedure: as §7, §8, §9

[7] = test system: WT Daudi cells; assay: Growth of Daudi cells in media with clofarabine; type: cell-based; settings: clofarabine 0.1 to 1 μM, FIG. 19
Procedure: (§5) FIG. 19 represents the growth rate (expressed in ×10^6 cells) for a period of 7 days of KO dCK Daudi cells versus WT Daudi cells in the absence or presence of increasing amounts of clofarabine (0.1 to 1 μM);
(§6) Daudi cells were cultured in media having different concentrations of clofarabine (0; 0.1; 0.25; 0.5 and 1 μM) for several days and counted at each passage.

[8] = test system: dCK KO Daudi cells; assay: Growth of Daudi cells in media with clofarabine; type: cell-based; settings: up to 1 μM clofarabine, FIG. 19
Procedure: as §5, §6

[9] = test system: double KO dCK/TCAR CAR T-cells; assay: Growth rate of double KO CAR T-cells in the presence of clofarabine; type: cell-based; settings: 11 days, clofarabine 0.1 μM to 10 μM, FIG. 14
Procedure: This experiment was performed on double KO dCK/TCAR T CAR T-cells (FMC63 which is described in patent application having the filing number PCT/EP2014/059662.) by culturing these cells during 11 days in media having different clofarabine (from 0.1 μM to 10 μM).

[10] = clinically relevant dose for ALL treatment, reported by EMA; cited from earlier work

What does the source list for `Nc1nc2nc[nH]c2c(=S)[nH]1` [6TG, 6-thioguanine]?
IC50 [1]: > 100 µM; IC50 [2]: ~10 nM

Which results are given for `Nc1nc(Cl)nc2c1ncn2[C@@H]1O[C@H](CO)[C@@H](O)[C@@H]1F` [clofarabine]?
IC50 [3]: ~100 nM; IC50 [4]: ~10 µM; IC50 ([5]; CAR T cells negative control, FIG. 17, read-out: IC50 clofarabine): 0.0001 µM; IC50 ([6]; dCK/TRAC KO CAR T cells (FMC63), FIG. 17, read-out: IC50 clofarabine): 0.5 µM; growth of cells in presence of clofarabine [7]: clearly impaired; growth of cells in presence of clofarabine [8]: able to grow; cell expansion in presence of clofarabine [9]: correct up to the 1 μM; Cmax [10]: 1000 nM

Which results are given for `Nc1nc(F)nc2c1ncn2[C@@H]1O[C@H](CO)[C@@H](O)[C@@H]1O` [fludarabine]?
IC50 ([5]; T CAR control, FIG. 17, read-out: IC50 fludarabine): 10 µM; IC50 ([6]; double KO CAR T cells, FIG. 17, read-out: IC50 fludarabine): 400 µM

Source: patent US10813951B2, “Method of engineering chemotherapy drug resistant T-cells for immunotherapy” (CELLECTIS, priority 2013, dated 2020)
